Data reported in patent publication US20080145313A1, “Compositions and Methods for the Treatment and Prevention of Neoplastic Disorders” (Genesis Research & Development Corporation Limited, priority 2006, published 2008).

Columns and labels:
[1] = system: target transcript mRNA in A549 cells; experiment: Level of mRNA of target transcript in A549 cells by quantitative RT-PCR (Tables 12 and 13); format: cell-based, human; conditions: 24 h post-transfection; for mRNA knockdown of transporter gene target transcript, 0.1 nM: 0.1 nM siRNA; for mRNA knockdown of transporter gene target transcript, 1 nM: 1 nM siRNA
How it was run: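 A549 cells were transfected with siRNA at 0.1, 1.0 and 10 nM. RNA was extracted 24 h later, reverse-transcribed with random primers, and target mRNA quantified by SYBR Green qRT-PCR. Values were normalised to housekeeping genes HPRT and Lamin.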

A549 cells = experiment: Growth inhibition of siRNA-transfected A549 cells, SYBR Green I DNA content; format: cell-based, human; conditions: A549 cells, 10 nM siRNA, DNA content 96 hours after transfection, transporter gene targets
How it was run: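 A549 cells reverse-transfected with 10 nM Stealth siRNAs via Lipofectamine RNAiMAX, seeded at 5×10^3 cells/cm^2 in RPMI 1640/10% FCS; non-specific siRNA control. DNA content read 96 h post-transfection by SYBR Green I fluorescence (ex 485/em 535 nm) after freeze-thaw and Triton X-100 lysis; mean of three wells.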

SEQ ID NO: 4898: siRNA targeting SLC2A12 (GLUT12) (chain 1 TATTGTTGTTGGTTGACAGGTTTCC; chain 2 UAUUGUUGUUGGUUGACAGGUUUCC; Antisense strand given in DNA and RNA notation, chemistry not given here; one strand in two spellings)
mRNA knockdown of transporter gene target transcript, 0.1 nM [1]: +++ (>90% mRNA knockdown)
mRNA knockdown of transporter gene target transcript, 1 nM [1]: +++ (>90% mRNA knockdown)
Growth Inhibition in A549 cells by 10 nM siRNA (A549 cells): − (no growth inhibition)

SEQ ID NO: 4899: siRNA targeting SLC2A12 (GLUT12) (chain 1 TTAGCAAGGATGCTGAGGTCGTCTC; chain 2 UUAGCAAGGAUGCUGAGGUCGUCUC; Antisense strand given in DNA and RNA notation, chemistry not given here; one strand in two spellings)
mRNA knockdown of transporter gene target transcript, 0.1 nM [1]: ++ (70-90% mRNA knockdown)
mRNA knockdown of transporter gene target transcript, 1 nM [1]: ++ (70-90% mRNA knockdown)
Growth Inhibition in A549 cells by 10 nM siRNA (A549 cells): − (no growth inhibition)

SEQ ID NO: 4900: siRNA targeting SLC2A12 (GLUT12) (chain 1 TTGAAATATAGGCAGAAAGAATGCC; chain 2 UUGAAAUAUAGGCAGAAAGAAUGCC; Antisense strand given in DNA and RNA notation, chemistry not given here; one strand in two spellings)
mRNA knockdown of transporter gene target transcript, 0.1 nM [1]: ++ (70-90% mRNA knockdown)
mRNA knockdown of transporter gene target transcript, 1 nM [1]: ++ (70-90% mRNA knockdown)
Growth Inhibition in A549 cells by 10 nM siRNA (A549 cells): − (no growth inhibition)

SEQ ID NO: 4901: siRNA targeting SLC7A5 (LAT1) (chain 1 AGCGTCATCACACACGTGAACACGA; chain 2 AGCGUCAUCACACACGUGAACACGA; Antisense strand given in DNA and RNA notation, chemistry not given here; one strand in two spellings)
mRNA knockdown of transporter gene target transcript, 0.1 nM [1]: ++ (70-90% mRNA knockdown)
mRNA knockdown of transporter gene target transcript, 1 nM [1]: ++ (70-90% mRNA knockdown)
Growth Inhibition in A549 cells by 10 nM siRNA (A549 cells): − (no growth inhibition)

SEQ ID NO: 4902: siRNA targeting SLC7A5 (LAT1) (chain 1 AAAGAGGCCGCTGTATAATGCCAGC; chain 2 AAAGAGGCCGCUGUAUAAUGCCAGC; Antisense strand given in DNA and RNA notation, chemistry not given here; one strand in two spellings)
mRNA knockdown of transporter gene target transcript, 0.1 nM [1]: ++ (70-90% mRNA knockdown)
mRNA knockdown of transporter gene target transcript, 1 nM [1]: ++ (70-90% mRNA knockdown)
Growth Inhibition in A549 cells by 10 nM siRNA (A549 cells): + (inhibits by at least 50%)

SEQ ID NO: 4903: siRNA targeting SLC7A5 (LAT1) (chain 1 ACGAAATTCAAGTAATTCCATCCTC; chain 2 ACGAAAUUCAAGUAAUUCCAUCCUC; Antisense strand given in DNA and RNA notation, chemistry not given here; one strand in two spellings)
mRNA knockdown of transporter gene target transcript, 0.1 nM [1]: ++ (70-90% mRNA knockdown)
mRNA knockdown of transporter gene target transcript, 1 nM [1]: +++ (>90% mRNA knockdown)
Growth Inhibition in A549 cells by 10 nM siRNA (A549 cells): − (no growth inhibition)

SEQ ID NO: 4904: siRNA targeting SLC7A11 (xCT) (chain 1 AGATAAATCAGCCCAGCAACTGCCA; chain 2 AGAUAAAUCAGCCCAGCAACUGCCA; Antisense strand given in DNA and RNA notation, chemistry not given here; one strand in two spellings)
mRNA knockdown of transporter gene target transcript, 0.1 nM [1]: + (50-70% mRNA knockdown)
mRNA knockdown of transporter gene target transcript, 1 nM [1]: ++ (70-90% mRNA knockdown)
Growth Inhibition in A549 cells by 10 nM siRNA (A549 cells): − (no growth inhibition)
